Tested on in the first data set: not given
Experiment: not given
Settings: not given
In general, melting point refers to the temperature of the solid-liquid transition. For the compound `CCOc1ccc(S(=O)(=O)N(CC(=O)N/N=C2/C(=O)Nc3ccc(S(=O)(=O)O)cc32)c2ccc(C)cc2)cc1` [Example 1, 3-[({[(4-ethoxyphenyl)sulfonyl]-4-methylanilino}acetyl)hydrazono]-2-oxo-2,3-dihydro-H-indole-5-sulfonic Acid], the melting point was 318 to 319 °C (dec.). In turn, `CCOc1ccc(S(=O)(=O)N(CC(=O)N/N=C2/C(=O)Nc3ccccc32)c2ccccc2)cc1` [Example 2, 4-ethoxy-N-{2-oxo-2-[2-(2-oxo-1,2-dihydro-3H-indol-3-ylidene)hydrazino]-ethyl}-N-phenylbenzenesulfonamide] had a melting point of 135.5 to 136.5 °C.

The compound `CCOc1ccc(S(=O)(=O)N(CC(=O)N/N=C2/C(=O)Nc3ccc([N+](=O)[O-])cc32)c2ccccc2)cc1` [Example 3, 4-ethoxy-N-{2-[2-(5-nitro-2-oxo-1,2-dihydro-3H-indol-3-ylidene)hydrazino]-2-oxoethyl}-N-phenylbenzenesulfonamide] gave a melting point of 252 to 253 °C. On the same count and under the same terms, then `CCOc1ccc(S(=O)(=O)N(CC(=O)N/N=C2/C(=O)Nc3ccc(I)cc32)c2ccccc2)cc1` [Example 4, 4-ethoxy-N-{2-[2-(5-iodo-2-oxo-1,2-dihydro-3H-indol-3-ylidene)hydrazino]-2-oxoethyl}-N-phenylbenzenesulfonamide], with 233 to 234 °C; and `Cc1ccc(N(CC(=O)N/N=C2/C(=O)Nc3ccccc32)S(=O)(=O)c2cccc3ccccc23)cc1` [Example 6, N-(4-methylphenyl)-N-{2-oxo-2-[2-(2-oxo-1,2-dihydro-3H-indol-3-ylidene)hydrazino]ethyl}-1-naphthalenesulfonamide], with 138 to 139 °C. On to `Cc1ccc(N(CC(=O)N/N=C2/C(=O)Nc3ccccc32)S(=O)(=O)c2ccc(Cl)cc2)cc1` [Example 8, 4-chloro-N-(4-methylphenyl)-N-{2-oxo-2-[2-(2-oxo-1,2-dihydro-3H-indol-3-ylidene)hydrazino]ethyl}benzenesulfonamide], for which the melting point was 234 to 235 °C. The compound `COc1ccc(S(=O)(=O)N(CC(=O)N/N=C2/C(=O)Nc3ccccc32)c2ccc(C)cc2)cc1` [Example 9, 4-methoxy-N-(4-methylphenyl)-N-{2-oxo-2-[2-(2-oxo-1,2-dihydro-3H-indol-3-ylidene)hydrazino]ethyl}benzenesulfonamide] came in with a melting point of 134 to 135 °C. With `Cc1ccc(N(CC(=O)N/N=C2/C(=O)Nc3ccccc32)S(=O)(=O)c2ccc(C)cc2)cc1` [Example 10, 4-methyl-N-(4-methylphenyl)-N-{2-oxo-2-[2-(2-oxo-1,2-dihydro-3H-indol-3-ylidene)hydrazino]ethyl}benzenesulfonamide], the melting point lay in the range of 243 to 244 °C. Take `CCOc1ccc(S(=O)(=O)N(CC(=O)N/N=C\c2ccccc2F)c2ccc(C)cc2)cc1` [Example 12, 4-ethoxy-N-{2-[2-(2-fluorobenzylidene)hydrazino]-2-oxoethyl}-N-(4-methylphenyl)benzenesulfonamide]: the melting point lay within 183 to 184 °C.

In the next data set the target is T1, hOT receptor (Homo sapiens, UniProt P30559).
T1 construct: expressed in transfected cells; host or cells: HEK293EBNA cells (membranes)
T1 sequence (P30559 1-389): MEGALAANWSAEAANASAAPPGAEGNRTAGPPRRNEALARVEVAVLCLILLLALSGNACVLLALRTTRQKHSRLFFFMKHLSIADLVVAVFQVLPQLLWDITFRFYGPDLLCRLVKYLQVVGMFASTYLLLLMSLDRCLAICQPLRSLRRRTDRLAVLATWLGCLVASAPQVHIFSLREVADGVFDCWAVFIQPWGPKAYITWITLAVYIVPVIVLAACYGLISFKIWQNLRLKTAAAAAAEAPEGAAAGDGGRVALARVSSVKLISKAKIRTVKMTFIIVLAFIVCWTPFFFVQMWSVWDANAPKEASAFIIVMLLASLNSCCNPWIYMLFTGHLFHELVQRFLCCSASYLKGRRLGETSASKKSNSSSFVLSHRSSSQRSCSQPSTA
The experiment in a line: In vitro competition binding assay on hOT receptor with scintillating proximity assay. As to conditions: membranes from HEK293EBNA cells expressing hOT receptor; radiolabel [125I]-OVTA; SPA; read-out: Binding Affinity Human OT-R Ki. The method, then: a) In Vitro Competition Binding Assay on hOT Receptor with Scintillating Proximity Assay (Pharmaceutical Manufacturing International, 1992, p. 49-53 by Cook, N. D. et al)
This assays allows to determine the affinity of the test compounds for the OT receptor. Membranes from HEK293EBNA cells expressing the hOT receptor were resuspended in buffer containing 50 mM Tris-HCl, pH 7.4, 5 mM MgCl2 and 0.1% BSA (w/v). The membranes (2-4 μg) were mixed with 0.1 mg wheat-germ aglutinin (WGA) SPA bead (type A) and 0.2 nM of the radiolabel [^125I]-OVTA (OVTA being […] and is an analogue of OT for competition binding experiments). Non-specific binding was determined in the presence of 1 μM Oxytocin. The total assay volume was 100 μl. The plates (Corning (D NBS plate) were incubated at room temperature for 30 min and counted on a Mibrobeta plate counter. The tests compounds were used in concentrations of 30 μM, 10 μM, 1 μM, 300 nM, 100 nM, 10 nM, 1 nM, 100 pM, 10 pM. The competition binding data were analysed using the iterative, nonlinear, curve-fitting program, “Prism”.
The binding affinities to the oxytocin receptor of the sulfanilide derivatives claimed in the formula I were assessed using the above described in vitro biological assay. The values refer to the binding affinity (IC50; μM) of the example compounds according to formula I to the Oxytocin receptor. From the values shown in Table 1 it can be derived that said test compounds according to formula I do show a significant binding to the oxytocin receptor.
One may read the Ki as a measure of affinity in units of concentration, obtained from inhibition or displacement. `O=C(CN(c1ccc(Br)cc1)S(=O)(=O)c1ccccc1)Nc1cccc2cccnc12` [2-[Benzenesulfonyl-(4-bromo-phenyl)-amino]-N-quinolin-8-yl-acetamide]: the Ki was 192 nM. On the same count and under the same terms, then `CCOc1ccc(S(=O)(=O)N(CC(=O)N/N=C\c2ccccc2O)c2ccc(C)cc2)cc1` [Example 15, 4-ethoxy-N-{2-[2-(2-hydroxybenzylidene)hydrazino]-2-oxoethyl}-N-(4-methylphenyl)benzenesulfonamide], with 1.2 nM; and `O=C(CN(c1ccc(Cl)cc1)S(=O)(=O)c1cccs1)N/N=C1\C(=O)Nc2ccccc21` [Example 36, N-(4-chlorophenyl)-N-{2-oxo-2-[(2Z)-2-(2-oxo-1,2-dihydro-3H-indol-3-ylidene)hydrazino]ethyl}-2-thiophenesulfonamide], with 29.3 nM; and `CCOc1ccc(S(=O)(=O)N(CC(=O)N/N=C2\C(=O)Nc3ccncc32)c2ccc(Cl)cc2)cc1` [Example 50, N-(4-chlorophenyl)-4-ethoxy-N-{2-oxo-2-[(2Z)-2-(2-oxo-1,2-dihydro-3H-pyrrolo[3,2-c]pyridin-3-ylidene)hydrazino]ethyl}benzenesulfonamide], with 57.1 nM. Still for that read-out and setting: the same measure for `CN(C)CCOc1ccc(S(=O)(=O)N(CC(=O)N/N=C2\C(=O)Nc3ccccc32)c2ccc(Cl)cc2)cc1` [Example 57, N-(4-chlorophenyl)-4-[2-(dimethylamino)ethoxy]-N-{2-oxo-2-[(2Z)-2-(2-oxo-1.2-dihydro-3H-indol-3-ylidene)hydrazino]ethyl}benzenesulfonamide]: 1.8 nM.

Consider `Cc1ccc(N(CC(=O)N/N=C2\C(=O)Nc3ccccc32)S(=O)(=O)c2ccc(OCCCN(C)C)cc2)cc1` [Example 59, 4-[3-(Dimethylamino)propoxy]-N-(4-methylphenyl)-N-{2-oxo-2-[(2Z)-2-(2-oxo-1,2-dihydro-3H-indol-3-ylidene)hydrazino]ethyl}benzenesulfonamide], for which the Ki turned out to be 0.3 nM. As for `O=C(CN(c1ccc(Cl)cc1)S(=O)(=O)c1ccc(OCc2cccs2)cc1)N/N=C1\C(=O)Nc2ccccc21` [Example 60, N-(4-chlorophenyl)-N-{2-oxo-2-[(2Z)-2-(2-oxo-1,2-dihydro-3H-indol-3-ylidene)hydrazino]ethyl}-4-(2-thienylmethoxy)benzenesulfonamide], the Ki was determined as 53.3 nM. On the same count and under the same terms, then `CN(C)CCCOc1ccc(S(=O)(=O)N(CC(=O)N/N=C2\C(=O)Nc3ccncc32)c2ccc(Cl)cc2)cc1` [Example 68, N-(4-chlorophenyl)-4-[3-(dimethylamino)propoxy]-N-{2-oxo-2-[(2Z)-2-(2-oxo-1,2-dihydro-3H-pyrrolo[3,2-c]pyridin-3-ylidene)hydrazino]ethyl}benzenesulfonamide], with 78.1 nM; and `COc1ccc(N(CC(=O)N2Cc3ccccc3CC2CC(N)=O)S(=O)(=O)c2ccc(OC)c(OC)c2)cc1` (stereo not shown) [Example 82, 2-[2-({[(3,4-Dimethoxyphenyl)sulfonyl]-4-methoxyanilino}acetyl)-1,2,3,4-tetrahydro-3-isoquinolinyl]acetamide], with 465 nM; and `CCOc1ccc(S(=O)(=O)N(CC(=O)N2Cc3ccccc3CC2CC(N)=O)c2ccc(C)cc2)cc1` (stereo not shown) [Example 89, 2-[2-({[(4-Ethoxyphenyl)sulfonyl]-4-methylanilino}acetyl)-1,2,3,4-tetrahydro-3-isoguinolinyl]acetamide], with 498 nM.

On to `CCOc1ccc(S(=O)(=O)N(CC(=O)N2Cc3ccccc3CC2C(N)=O)c2ccc(OC)cc2)cc1` (stereo not shown) [Example 91, 2-({[(4-Ethoxyphenyl)sulfonyl]-4-methoxyanilino}acetyl)-1.2,3,4-tetrahydro-3-isoquinolinecarboxamide], for which the Ki is 316 nM.

On to `Cc1ccc(N(CC(=O)N2CCc3ccccc3C2)S(=O)(=O)c2ccccc2)cc1` [N-[2-(3,4-Dihydro-1H-isoquinolin-2-yl)-2-oxo-ethyl]-N-p-tolyl-benzenesulfonamide], for which the inhibitory constant (Ki) is 472 nM. As to “N-(4-chlorophenyl)-4-ethoxy-N-{2-[(2E)-2-(2-hydroxybenzylidene)hydrazino]-2-oxoethyl}benzenesulfonamide [Example 38]”, the Ki is 14.8 nM.

Values taken from patent US7312358B2, “Pharmaceutically active sulfanilide derivatives” (Laboratoires Serono SA, priority 2000, dated 2007).
